We go through 24 compounds from patent publication US20170044104A1, “NEW PESTICIDAL COMPOUNDS AND USES” (BAYER CROPSCIENCE AG, priority 2013, published 2017).

One test concerns Haemonchus contortus. The test can be described thus: Haemonchus contortus (HAEMCO) larval mortality assay. The settings on record: 120 h; for mortality at 20 ppm: application rate 20 ppm, after 5 days, read-out: activity (percentage of larval mortality); for Emax at 0.8 ppm / Emax at 4 ppm / Emax at 20 ppm: comparative test, 5 dat, read-out: % Efficacy. As for the experimental part: (§1) Solvent: dimethyl sulfoxide
(§2) To produce a suitable preparation of active compound, 10 mg of active compound are dissolved in 0.5 ml solvent, and the concentrate is diluted with “Ringer's solution” to the desired concentration.
Approximately 40 larvae of the red stomach worm (Haemonchus contortus) are transferred into a test tube containing compound solution.
After 5 days percentage of larval mortality are recorded. 100% efficacy means all larvae are killed, 0% efficacy means no larvae are killed.

A further test relates to Cooperia curticei. Put plainly: Cooperia curticei (COOPCU) larval mortality assay. The note with it: 120 h, application rate 20 ppm, after 5 days, read-out: activity (percentage of larval mortality). As for the experimental part:
as §1, §2
Approximately 40 nematode larvae (Cooperia curticei) are transferred into a test tube containing the compound solution.
After 5 days percentage of larval mortality is recorded. 100% efficacy means all larvae are killed; 0% efficacy means no larvae are killed.

Test [1] concerns Nippostrongylus brasiliensis. Put plainly: Nippostrongylus brasiliensis (NIPOBR) assay, acetylcholine esterase readout. The note with it: 10 ppm (10 μg/ml), adult worms, read-out: activity (reduction of AChE compared to negative control). As to the method: Adult Nippostrongylus brasiliensis were washed with saline buffer containing 100 U/ml penicillin, 0.1 mg/ml streptomycin and 2.5 μg/ml amphotericin B. Test compounds were dissolved in DMSO and worms were incubated in medium in a final concentration of 10 μg/ml (10 ppm). An aliquot of the medium was used to determine the acetylcholine esterase activity in comparison to a negative control. The principle of measuring acetylcholine esterase as readout for anthelmintic activity was described in Rapson et al (1986) and Rapson et al (1987).

Another test concerns Meloidogyne incognita. Put plainly: Meloidogyne incognita (MELGIN) gall formation assay. In kind it is in vivo. The note with it: 336 h, read-out: nematicidal activity (percentage of gall formation). As for the experimental part:
Solvent: 125.0 parts by weight of acetone
To produce a suitable preparation of active compound, 1 part by weight of active compound is mixed with the stated amount of solvent, and the concentrate is diluted with water to the desired concentration.
Vessels are filled with sand, a solution of the active ingredient, a suspension containing eggs and larvae of the southern root-knot nematode (Meloidogyne incognita) and salad seeds. The salad seeds germinate and the seedlings grow. Galls develop in the roots.
After 14 days the nematicidal activity is determined on the basis of the percentage of gall formation. 100% means no galls were found and 0% means the number of galls found on the roots of the treated plants was equal to that in untreated control plants.

The test system of test [2] is Dirofilaria immitis microfilariae. The test can be described thus: microbe, parasite or virus in culture. The settings on record: 72 h, read-out: EC50 (reduction of motility).

By mortality is commonly meant the share of the test organisms that died. Regarding `O=C(NCCc1ccc(-c2cncc(F)c2)cc1Cl)c1ccccc1C(F)(F)F` [Example 1-37], in the test with Haemonchus contortus, the mortality at 20 ppm worked out at 100%, the Emax at 0.8 ppm worked out at 100%, the Emax at 4 ppm was 100% and the Emax at 20 ppm is 100%. The mortality at 20 ppm with Cooperia curticei is 100%. In addition, the inhibition at 10 ppm in test [1] was no less than 60%. In addition, in the test on Meloidogyne incognita, the pest or weed control at 20 ppm was found to be 90%.
As to `O=C(NCCc1ccc(-c2ccc(F)nc2)cc1Cl)c1ccccc1C(F)(F)F` [Example 1-44], in the test with Haemonchus contortus, the mortality at 20 ppm turned out to be 100%, the Emax at 0.8 ppm is 100%, the Emax at 4 ppm worked out at 100% and the Emax at 20 ppm stood at 100%. The mortality at 20 ppm with Cooperia curticei stood at 100%. Also, the inhibition at 10 ppm in test [1] is no less than 60%. The pest or weed control at 20 ppm in the test with Meloidogyne incognita was 90%.
Turning to `O=C(NCCc1ccc(-c2cccnc2Cl)cc1Cl)c1ccccc1C(F)(F)F` [Example 1-48], in the test with Haemonchus contortus, the mortality at 20 ppm came out at 100%, the Emax at 0.8 ppm worked out at 80%, the Emax at 4 ppm came out at 100% and the Emax at 20 ppm was 100%. In addition, the mortality at 20 ppm with Cooperia curticei is 100%. The inhibition at 10 ppm in test [1] was no less than 60%. The pest or weed control at 20 ppm in the test with Meloidogyne incognita is 90%.
As for `O=C(NCC(F)(F)c1ccc(-c2ccc(Cl)nc2)cc1Cl)c1ccccc1C(F)(F)F` [Example 1-68], the mortality at 20 ppm in the test with Haemonchus contortus and in the test on Cooperia curticei was 100% throughout. Further, the inhibition at 10 ppm in test [1] is no less than 60%. The pest or weed control at 20 ppm in the test on Meloidogyne incognita worked out at 90%.
Consider `O=C(NCC(F)(F)c1ccc(-n2cc(C(F)(F)F)cn2)cc1Cl)c1ccccc1C(F)(F)F` [Example 1-69, N-[2-[2-chloro-4-[4-(trifluoromethyl)pyrazol-1-yl]phenyl]-2,2-difluoro-ethyl]-2-(trifluoromethyl)benzamide], for which, in the test on Haemonchus contortus, the mortality at 20 ppm was found to be 100%, the Emax at 0.8 ppm stood at 100%, the Emax at 4 ppm came out at 100% and the Emax at 20 ppm amounted to 100%. In addition, the mortality at 20 ppm in the test on Cooperia curticei turned out to be 100%. For the same compound, the inhibition at 10 ppm in test [1] is no less than 60%. Besides, the pest or weed control at 20 ppm with Meloidogyne incognita amounted to 100%.
Broadly, the EC50 is the concentration at which the effect is half-maximal. For `O=C(NCC(F)c1ccc(-c2ccc(C(F)(F)F)nc2)cc1Cl)c1ccccc1C(F)(F)F` (stereo not shown) [Example 1-70], the mortality at 20 ppm in the test with Haemonchus contortus amounted to 90%; in the test with Cooperia curticei, 100%. Besides, the inhibition at 10 ppm in test [1] is no less than 60%. In the test with Meloidogyne incognita, the pest or weed control at 20 ppm was 100%. For the same compound, in test [2], the EC50 was less than 5 µg/mL.
Take `O=C(NCC(F)c1ccc(-c2ccc(Cl)nc2)cc1Cl)c1ccccc1C(F)(F)F` (stereo not shown) [Example 1-73, N-{2-[2-chloro-4-(6-chloropyridin-3-yl)phenyl]-2-fluoroethyl}-2-(trifluoromethyl) benzamide]: the mortality at 20 ppm in the test with Haemonchus contortus and with Cooperia curticei was 100% throughout. In addition, the inhibition at 10 ppm in test [1] is no less than 60%. Further, the pest or weed control at 20 ppm with Meloidogyne incognita stood at 100%. Further, the EC50 in test [2] was less than 5 µg/mL.
Regarding `O=C(NCC(F)c1ccc(-c2ccc(F)nc2)cc1Cl)c1ccccc1C(F)(F)F` (stereo not shown) [Example 1-74], in the test with Haemonchus contortus, the mortality at 20 ppm worked out at 100%, the Emax at 0.8 ppm is 100%, the Emax at 4 ppm stood at 100% and the Emax at 20 ppm was 100%. Besides, the mortality at 20 ppm with Cooperia curticei was determined as 100%. Further, the inhibition at 10 ppm in test [1] is no less than 60%. Moreover, the pest or weed control at 20 ppm in the test with Meloidogyne incognita worked out at 90%. Also, in test [2], the EC50 was less than 5 µg/mL.
For the compound `O=C(NCC(F)c1ccc(-c2cccnc2Cl)cc1Cl)c1ccccc1C(F)(F)F` (stereo not shown) [Example 1-75], the mortality at 20 ppm in the test on Haemonchus contortus and in the test on Cooperia curticei was 100% throughout. Moreover, the inhibition at 10 ppm in test [1] was no less than 60%.
For the compound `O=C(NCC(F)c1ccc(-c2cncc(Cl)c2)cc1Cl)c1ccccc1C(F)(F)F` (stereo not shown) [Example 1-77], the mortality at 20 ppm in the test with Haemonchus contortus and in the test on Cooperia curticei was 100% throughout. Besides, in test [1], the inhibition at 10 ppm is no less than 60%. Moreover, in test [2], the EC50 is less than 5 µg/mL.
In the case of `O=C(NCC(F)c1ccc(-c2ccnc(F)c2)cc1Cl)c1ccccc1C(F)(F)F` (stereo not shown) [Example 1-78], the mortality at 20 ppm in the test with Haemonchus contortus and in the test with Cooperia curticei was 100% throughout. The inhibition at 10 ppm in test [1] was no less than 60%. Moreover, in test [2], the concentration giving a half-maximal response (EC50) was less than 5 µg/mL.
Regarding `O=C(NCC(F)c1ccc(-c2cncc(Cl)c2)cc1Cl)c1nccnc1C(F)(F)F` (stereo not shown) [Example 1-82], the mortality at 20 ppm with Haemonchus contortus and in the test with Cooperia curticei was 100% throughout. Besides, the inhibition at 10 ppm in test [1] was no less than 60%. In the test on Meloidogyne incognita, the pest or weed control at 20 ppm stood at 100%.
For the compound `O=C(NCC(F)c1ccc(-c2ccc(F)nc2)cc1Cl)c1nccnc1C(F)(F)F` (stereo not shown) [Example 1-87], the mortality at 20 ppm in the test with Haemonchus contortus and in the test with Cooperia curticei was 100% each time. The inhibition at 10 ppm in test [1] is no less than 60%. Moreover, the pest or weed control at 20 ppm with Meloidogyne incognita was found to be 100%.
With `O=C(NCC(F)c1ccc(-c2ccc(F)nc2)cc1Cl)c1cccnc1C(F)(F)F` (stereo not shown) [Example 1-88], the mortality at 20 ppm with Haemonchus contortus and with Cooperia curticei was 100% throughout. Also, the inhibition at 10 ppm in test [1] is no less than 60%. The pest or weed control at 20 ppm with Meloidogyne incognita worked out at 100%.
In the case of `COc1ccc(-c2ccc(C(F)(F)CNC(=O)c3ccccc3C(F)(F)F)c(Cl)c2)cn1` [Example 1-90], the mortality at 20 ppm with Haemonchus contortus and in the test on Cooperia curticei was 100% throughout. For the same compound, in test [1], the inhibition at 10 ppm is no less than 60%.
For `O=C(NCC(F)(F)c1ccc(-c2cc(Cl)nc(Cl)c2)cc1Cl)c1ccccc1C(F)(F)F` [Example 1-92], the mortality at 20 ppm in the test with Haemonchus contortus and in the test with Cooperia curticei was 100% each time. Further, in test [1], the inhibition at 10 ppm was no less than 60%.
`O=C(NCC(F)(F)c1ccc(-c2cncc(F)c2)cc1Cl)c1ccccc1C(F)(F)F` [Example 1-96]: the mortality at 20 ppm in the test on Haemonchus contortus and in the test with Cooperia curticei was 100% each time. The inhibition at 10 ppm in test [1] was no less than 60%.
For `O=C(NCC(F)(F)c1ccc(-c2cncc(Cl)c2)cc1Cl)c1ccccc1C(F)(F)F` [Example 1-97], the mortality at 20 ppm with Haemonchus contortus and in the test on Cooperia curticei was 100% each time. Besides, the inhibition at 10 ppm in test [1] was no less than 60%.
Turning to `CC(F)(CNC(=O)c1cccnc1C(F)(F)F)c1ccc(-c2cncc(F)c2)cc1Cl` (stereo not shown) [Example 1-98], the mortality at 20 ppm in the test on Haemonchus contortus and with Cooperia curticei was 100% in each case. Further, the inhibition at 10 ppm in test [1] is no less than 60%.
Take `CC(F)(CNC(=O)c1ccccc1Cl)c1ccc(-c2cncc(F)c2)cc1Cl` (stereo not shown) [Example 1-99]: the mortality at 20 ppm in the test on Haemonchus contortus and with Cooperia curticei was 100% throughout. Moreover, in test [1], the inhibition at 10 ppm was no less than 60%. Also, the EC50 in test [2] is less than 5 µg/mL.
With `CC(F)(CNC(=O)c1ccccc1Br)c1ccc(-c2cncc(F)c2)cc1Cl` (stereo not shown) [Example 1-100], the mortality at 20 ppm with Haemonchus contortus and with Cooperia curticei was 100% each time. In addition, the inhibition at 10 ppm in test [1] was no less than 60%. In test [2], the EC50 is less than 5 µg/mL.
For the compound `O=C(NCC(F)(F)c1ccc(-c2ccc(F)nc2)cc1F)c1ccccc1C(F)(F)F` [Example 1-106], the mortality at 20 ppm in the test with Haemonchus contortus and in the test on Cooperia curticei was 100% throughout. Besides, the inhibition at 10 ppm in test [1] is no less than 60%. Moreover, the pest or weed control at 20 ppm in the test on Meloidogyne incognita worked out at 90%.
On to `O=C(NCC(F)(F)c1ccc(-c2cncc(Cl)c2)cc1F)c1ccccc1C(F)(F)F` [Example 1-107], for which the mortality at 20 ppm with Haemonchus contortus and in the test with Cooperia curticei was 100% in each case. Also, the inhibition at 10 ppm in test [1] was no less than 60%.
Take `O=C(NCC(F)(F)c1ccc(-c2cncc(F)c2)cc1F)c1ccccc1C(F)(F)F` [Example 1-111]: the mortality at 20 ppm with Haemonchus contortus and in the test with Cooperia curticei was 100% in each case. For the same compound, the inhibition at 10 ppm in test [1] is no less than 60%.
